Laboratory results as given in US20050038058A1, “Novel compounds and methods for therapy” (Institute of Organic Chemistry and Biochemistry, priority 2001, published 2005).
≈ marks a conversion by molar mass, not a printed value. Like-named read-outs stand apart in the source and are kept apart here.

Assays:
HIV-1(Ba-L) = experiment: HIV-1(BaL) p24 antigen production in human primary macrophages (M/M); format: cell-based; details: Table 2; for EC50: Human immunodeficiency virus 1, BAL, Primary macrophage
Text: Viruses. The origins of MSV, HIV type 1 (HIV-1) (strain IIIB and Ba-L), HIV-2 (strain ROD) and FIV (strain Petaluma) have been described previously (Balzarini et al., AIDS 5: 21-28, 1991; De Clercq et al., Proc. Soc. Exp. Biol. Med. 137:590-594, 1971; Egberink et al., Proc. Natl. Acad. Sci. 87:3087-3091, 1990; Hartmann et al., Antiviral Chem. Chemother. 5:13-19, 1994; Popovic et al., Science 224:497-500, 1984). HIV-1(IIIB) and HIV-2(ROD) stocks were obtained from supernatants of virus-infected MT-4 cell cultures. HIV-1BaL was expanded in human primary M/M, whose supernatants were collected, filtered and stored at −80° C. before use. Characteristics of viral stocks used for this study were 2.1×10^8 HIV-RNA genomes/ml (corresponding to 35 ng of p24 antigen) and 5,000 tissue culture infectious doses 50% per ml (TCID50/ml) as assessed by virus titration in other primary M/M cultures. The isolation and characterization of the clinical HIV-1 isolates L1S, L6S and L6S/PMEA has been reported (Thormar et al., Proc. Natl. Acad. Sci. USA 93:3283-3287, 1995; Van Laethem et al., AIDS 15:553-561, 2001). The HIV-1/L1S clinical isolate was derived from a patient not treated with NRTIs (nucleoside reverse transcriptase inhibitors) or ANPs and cultured without the selective pressure of any drugs. Therefore, it contained no obvious mutations that are characteristic for NRTI- or ANP-treated patients. HIV-1/L6S is a clinical isolate from a drug-treated individual cultured without the selective pressure of any drugs. As is characteristic for NRTI-treated patients, it contained S68G, K70T, V75I, F77L, F116Y and Q151M mutations in its RT. HIV-1/L6S/PMEA is the clinical isolate HIV-1/L6S that has been isolated after culturing the virus for 11 passages in the presence of increasing concentrations of PMEA (adefovir). It gained, in addition to the mutations mentioned for HIV-1/L6S, also the PMEA-characteristic K65R mutation in its reverse transcriptase (RT).
Human primary macrophages (M/M) were prepared and purified as follows. Peripheral blood mononuclear cells (PBMC), obtained from healthy HIV-1-negative donors were separated over a Ficoll gradient and seeded in 48-well plates at 1.8×10^6 cells/well in 1 ml of RPMI 1640 containing 20% heat-inactivated, endotoxin- and mycoplasma-free fetal bovine serum (Hyclone Laboratories, Inc., Logan, Utah), 4 mM L-glutamine (Life Technologies), 50 U/ml penicillin and 50 μg/ml streptomycin (Life Technologies) (hereinafter referred to as complete medium). Five days after plating and culturing the PBMC at 37° C. in a humidified atmosphere enriched with 5% CO2-adherent cells were carefully removed with repeated washings with warmed RPMI-1640, leaving a monolayer of adherent cells which were finally incubated in complete medium. […]

FIV (strain Petaluma) = experiment: Anti-FIV assay, p24 antigen in CrFK cells; format: cell-based; details: Table 2; for EC50: Feline immunodeficiency virus, CRFK
Experimental: For the anti-FIV assays, 10^5 CrFK cells were seeded onto 24-well tissue culture plates. Cells were cultured with 2 ml of culture medium/well containing 2.5% of fetal calf serum in the presence of various drug concentrations. The assays were carried out in triplicate. After a 1-hr incubation period at 37° C., cells were infected with FIV. Virus was left in contact with the cultures for 1 day, after which the medium was removed and new medium containing the appropriate drug concentrations was added. After 6 days, the presence of FIV p24 antigen was examined by an antigen capture assay.

[1] = Inhibition of CEM cell growth (cytostatic activity); format: cell-based; details: human
Experimental: Cytostatic and antimetabolic effect of acyclic nucleoside phosphonates in vitro. The assays to examine the inhibition of CEM cell growth by the test compounds have been described previously (Balzarini et al., AIDS 5:21-28, 1991). The 50% cytostatic concentration (CC50) was defined as the concentration of compound that reduced the number of living cells by 50% . To measure MT-4 cell toxicity of the test compounds, 5×10^4 MT-4 cells were incubated in the wells of 96-well microplates in the presence or absence of different concentrations of the test compounds for 5 days at 37° C. The CC50 was then calculated from the number of living cells counted under a microscope by the trypan blue exclusion method.

C3H cells = experiment: Alteration of C3H cell morphology (minimal inhibitory concentration); format: cell-based, murine; details: for Compound concentration at which morphological toxicity was observed, C3H (value between parentheses): Table 2, footnote c; for CC50 C3H (minimal inhibitory concentration): microscopically visible alteration of cell morphology, > means no visible toxicity at the indicated concentration
[2] = as above; format: cell-based, murine; details: mouse, microscopically visible alteration of cell morphology, > means no visible toxicity at the indicated concentration, read-out: CC50 C3H (minimal inhibitory concentration)
HIV = experiment: Anti-HIV activity across HIV-1 and HIV-2 in CEM and MT-4 cell cultures; format: cell-based; details: HIV-1 and HIV-2 in CEM and MT-4 cells; for EC50: Human immunodeficiency virus 1, MT4, read-out: EC50 values for HIV (range over virus/cell systems)
Experimental: In vitro antiviral assays. The activity against HIV-1- and HIV-2-induced cytopathicity was examined in MT-4 cell cultures at day 5 post infection and based on the determination of cell viability by trypan blue dye staining or in CEM cell cultures at day 4 to 5 post infection and based on the microscopical examination of virus-induced giant cell formation. HIV-1 and HIV-2 were added at 100 CCID50 to the cell cultures.

[3] = CEM cells, 50% cytostatic concentration, CEM cell proliferation, Table 1, read-out: CC50 (CEM)
[4] = CEM cells, inhibition of cell proliferation, Table 2, read-out: CC50 CEM
[5] = CEM cells, read-out: CC50 for CEM cells
[6] = C3H/3T3 embryo fibroblast cells

Row | SMILES | EC50 (HIV-1(Ba-L)) [µg/mL] | EC50 (FIV (strain Petaluma)) [µg/mL] | CC50 [1, 3] [µg/mL] | CC50 [1, 4] [µg/mL] | CC50 [1, 5] [µg/mL] | Compound concentration at which morphological toxicity was observed, C3H (value between parentheses) (C3H cells) [μg/ml] | Minimal concentration causing visible cell morphology alteration [2, 6] [µg/mL] | EC50 (HIV) [µg/mL] | CC50 ([1]; 50% cytostatic concentration, CEM cell proliferation, Table 1, read-out: CC50 (CEM)) [µg/mL] | Minimal concentration causing visible cell morphology alteration [2] [µg/mL] | EC50 HIV-1 (BaL) (M/M) (HIV-1(Ba-L)) [µg/mL] | EC50 FIV (CrFK) (FIV (strain Petaluma)) [µg/mL] | CC50 C3H (minimal inhibitory concentration) (C3H cells) [µg/mL] | EC50 values for HIV (range over virus/cell systems) (HIV) [µg/mL]
1 | Nc1cc(OCCOCP(=O)(O)O)nc(N)n1 [Compound 1, 2,4-diamino-6-[2-(phosphonomethoxy)ethoxy]pyrimidine] | 0.002 ± 0.001 (≈ 0.00757 µM) | 0.25 ± 0.01 (≈ 0.946 µM) | 11 (≈ 41.6 µM) | 11 ± 2 (≈ 41.6 µM) | 11 (≈ 41.6 µM) | 200 | > 40 | 0.29 to 0.8 (≈ 1.1 to 3.03 µM) | – | – | – | – | – | –
2 | Nc1ncnc2c1ncn2CCOCP(=O)(O)O [PMEA, 9-[(2-phosphono-methoxy)ethyl]adenine, reference compound] | 0.006 (≈ 0.022 µM) | 0.46 ± 0.19 (≈ 1.68 µM) | – | – | – | 200 | – | 0.96 to 2 (≈ 3.51 to 7.32 µM) | 16 (≈ 58.6 µM) | > 40 | – | – | – | –
3 | C[C@H](Cn1cnc2c(N)ncnc21)OCP(=O)(O)O [(R)-PMPA, (R)-9-[(2-phosphonomethoxy)-propyl]adenine, reference compound] | – | – | – | – | – | – | – | – | – | – | 0.003 ± 0.001 (≈ 0.0104 µM) | 0.13 (≈ 0.453 µM) | >200 | 0.36 to 0.52
4 | C[C@H](COc1cc(N)nc(N)n1)OCP(=O)(O)O [Compound 11, 2,4-diamino-6-(R)-[2-(phosphonomethoxy)propoxy]pyrimidine] | – | – | – | – | – | 200 | – | – | – | – | 0.005 ± 0.0 (≈ 0.018 µM) | 0.66 ± 0.14 (≈ 2.37 µM) | > 40 | –
5 | Nc1cc(SCCOCP(=O)(O)O)nc(N)n1 [Compound 2, 2,4-diamino-6-{[2-(phosphonomethoxy)ethyl]-sulfanyl}pyrimidine] | – | 0.97 ± 0.4 (≈ 3.46 µM) | 64 (≈ 228 µM) | 64 ± 9.8 (≈ 228 µM) | ~60 (≈ 214 µM) | 200 | > 40 | – | – | – | – | – | – | –
